Test results published in US20240050526A1, “CATH2 DERIVATIVES FOR STIMULATING INNATE IMMUNE MEMORY” (priority 2020, published 2024).
Ends that are not written are not given here.

Legend:
Format in all cases: cell-based, human
dTHP-1 cells [1] = assay: DCATH-2 training of dTHP-1 cells in the presence of pathway inhibitors; conditions: 1 μg/ml Pam3CSK4; for effect of inhibitor on DCATH-2 training (amplified Pam3CSK4-induced TNFα production): inhibitor 1 h before and during priming with 5 μM DCATH-2, 3 days rest; for Pam3CSK-induced TNFα production in the presence of inhibitor: reference level of FIG. 4a, means, SEM, 3 experiments
Description: (§1) THP-1 cells were cultured in Iscove Modified Dulbecco Media (IMDM, Gibco) containing Glutamax-I, sodium pyruvate, 10% fetal calf serum at 37° C. and 5% CO2. For differentiation to macrophage-like cells, THP-1 cells were grown in IMDM/FCS medium containing 8 of 100 nM PMA and seeded in 96 wells (5×10^4 cells/well), 24 wells (3×10^5 cells/well) or 6 wells plates (1×10^6 cells/well) during 48 h. Subsequently, dTHP-1 were washed with pre-warmed IMDM/FCS, left overnight to rest and primed during 1 to 24 h with 2-10 μM peptides of fresh IMDM/FCS medium, washed 3 times in medium. After 3 days rest cells were stimulated with various stimuli: S. minnesota LPS (10 ng/ml), E. coli LPS (10 or 50 ng/ml), Pam3CSK4 (1 μg/ml) or Pam2CSK4 (1 μg/ml). After 24 h supernatants were collected and stored at −20° C. For inhibition, dTHP-1 cells were pre-incubated for 1 h before priming and during priming with rapamycin (10 nM), AICAR (50 nM), metformin (0.3 mM), wortmannin (1 μM), ascorbate (50 μM), SB203580 (10 μM), PD98059 (10 μM), SP600125 (10 μM), EGCG (40 μM), anacardic acid (50 μM), curcumin (10 μM), garcinol (10 μM), Bay-11-7085 (10 μM), MTA (1 mM), MM-102 (25 μM), suramin (50 μM), KN-62 (3 μM), nystatin (10 μg/ml), and chlorpromazine (10 μM).
(§2) TNFα, IL-6, CXCL10 and CCL5 production were measured using ELISA (R&D systems) following instructions of the manufacturer.

dTHP-1 cells [2] = assay: Confocal imaging of Tamra-labelled DCATH-2 uptake by dTHP-1 cells; conditions: 1 h pre-incubation with inhibitor, 3 h priming with Tamra-DCATH-2
Description: 3×10^5 dTHP-1 cells were seeded on 8 mm coverslips in 24 wells plates and differentiated for 48 h with 100 nM PMA in 0.5 ml medium. Wells were washed 3 times, and cells were primed for 3 h with Tamra-labelled DCATH-2 (TD) or medium. For inhibition conditions, cells were pre-incubated before priming for 1 h with 3 μM KN-62, 50 μM suramin, 10 μM chlorpromazine, or 10 μg/ml nystatin. After priming, coverslips were washed 3 times with warm medium and fixated for 30 min in 4% paraformaldehyde solution (0.1 M phosphate buffer, pH 7.4). After staining of nuclei with Hoechst (Molecular probes) for 10 min, coverslips were mounted on glass slides using ProLong glass antifade mountant (Thermofisher, P36980). Confocal images were acquired on a Leica SPE-II using the 100×HCX PLAN APO (NA=1.4-0.7) objective. Imaging was performed using a quadruple band beam splitter for the 561 nm laser. Visualization of Hoechst stained dTHP-1 cells was done with a 405 nm (100 mW) Coherent Violet Cube laser. Image analysis was done using composite images of both channels. In brief, regions of interest were set manually using DIC for segmentation. To isolate puncta from background noise, a threshold was set for the Tamra channel and intensity and area of puncta were measured partially automated using a script.

dTHP-1 cells [3] = assay: Innate immune training of dTHP-1 cells by cathelicidin peptides, cytokine ELISA after TLR agonist re-stimulation; conditions: priming 24 h with 10 μM peptide; 100 nM PMA dTHP-1 cells; 3 days rest; re-stimulated with 10 ng/ml Salmonella minnesota LPS
Description: as §1, §2
Extrapolating from the trained immunity experiments with human monocytes, we examined if mature cathelicidin peptides could induce trained immunity in TH P-1 cells, a human monocyte cell line. TH P-1 cells were differentiated with 100 nM or 8 nM phorbol 12-myristate 13-acetate (PMA) during 48 h washed 3 times and, after overnight rest, primed with 2-10 μM of chicken cathelicidin 2 (CATH-2), its full D-analog DCATH-2 or human cathelicidin LL-37 for 24 h. Subsequently, dTHP-1 cells were washed 3 times and re-stimulated after a 3-day rest period with TLR agonists (24 h) (FIG. 1a). […] Priming with 5 μM of its full-D-amino acid analog DCATH-2 amplified 2- to 3-fold the TNFα and IL-6 production in response to LPS stimulation. A minor response was found for priming with 10 μM LL-37, which amplified IL-6 production 1.4-fold in 100 nM differentiated cells.

Row | Compound | effect of inhibitor on DCATH-2 training (amplified Pam3CSK4-induced TNFα production) (dTHP-1 cells [1]) | other results
1 | Oc1c2ccccc2c2c3c(cccc13)N=N2 [SP600125] | no effect | –
2 | O=C(O[C@@H]1Cc2c(O)cc(O)cc2O[C@@H]1c1cc(O)c(O)c(O)c1)c1cc(O)c(O)c(O)c1 [EGCG, epigallocatechin gallate] | abrogated | –
3 | O=C1O[C@H]([C@@H](O)CO)C(O)=C1O [ascorbate] | – | Pam3CSK-induced TNFα production in the presence of inhibitor (dTHP-1 cells [1]): 421 ± 112 pg/mL
4 | C[C@@H]1[C@H](O)[C@@H](C)/C=C/C=C/CC/C=C/C=C/C=C/C=C/C(O[C@H]2O[C@H](C)[C@@H](O)[C@H](N)[C@@H]2O)CC2O[C@](O)(CC(O)C(O)CCC(O)CC(O)CC(O)CC(=O)O[C@H]1C)CC(O)C2C(=O)O (stereo partly shown) [nystatin] | strongly impaired | effect of inhibitor on uptake of TAMRA-labelled DCATH-2 by dTHP-1 cells (dTHP-1 cells [2]): reduced uptake
5 | LLGDFFRKSKEKIGKEFKRIVQRIKDFLRNLVPRTES [LL-37, human cathelicidin, reference compound] | – | amplification of IL-6 production (dTHP-1 cells [3]): 1.4 fold
6 | NC(=O)c1ncn([C@@H]2O[C@H](COP(=O)(O)O)[C@@H](O)[C@H]2O)c1N [AICAR, 5-aminoimidazole-4-carboxamide ribonucleotide] | did not result in a significant reduction | Pam3CSK-induced TNFα production in the presence of inhibitor (dTHP-1 cells [1]): 335 ± 89 pg/mL
7 | CCCCCCCCCCCCCCCc1cccc(O)c1C(=O)O [anacardic acid] | abrogated | –
8 | CO[C@H]1C[C@@H]2CC[C@@H](C)[C@@](O)(O2)C(=O)C(=O)N2CCCC[C@H]2C(=O)O[C@H]([C@H](C)C[C@@H]2CC[C@@H](O)[C@H](OC)C2)CC(=O)[C@H](C)/C=C(\C)[C@@H](O)[C@@H](OC)C(=O)[C@H](C)C[C@H](C)/C=C/C=C/C=C/1C [rapamycin] | – | Pam3CSK-induced TNFα production in the presence of inhibitor (dTHP-1 cells [1]): 318 ± 45 pg/mL
9 | CCC(CC)(NC(=O)C(C)C)C(=O)N[C@@H](CCCN=C(N)N)C(=O)NC1(C(=O)NC(c2ccc(F)cc2)c2ccc(F)cc2)CCCC1 [MM-102] | not affected | –
10 | Cc1ccc(C(=O)Nc2ccc(S(=O)(=O)O)c3cc(S(=O)(=O)O)cc(S(=O)(=O)O)c23)cc1NC(=O)c1cccc(NC(=O)Nc2cccc(C(=O)Nc3cc(C(=O)Nc4ccc(S(=O)(=O)O)c5cc(S(=O)(=O)O)cc(S(=O)(=O)O)c45)ccc3C)c2)c1 [suramin] | completely impaired | effect of inhibitor on uptake of TAMRA-labelled DCATH-2 by dTHP-1 cells (dTHP-1 cells [2]): reduced uptake
11 | CN([C@@H](Cc1ccc(OS(=O)(=O)c2cccc3cnccc23)cc1)C(=O)N1CCN(c2ccccc2)CC1)S(=O)(=O)c1cccc2cnccc12 [KN-62] | partially inhibited | effect of inhibitor on uptake of TAMRA-labelled DCATH-2 by dTHP-1 cells (dTHP-1 cells [2]): reduced uptake
12 | RFGRFLRKIRRFRPKVTITIQGSARF-NH2 [CATH-2, chicken cathelicidin 2 peptide] | – | amplification of IL-6 production (dTHP-1 cells [3]): 1.8 fold
13 | CC(C)(C)c1ccc(S(=O)(=O)/C=C/C#N)cc1 [Bay-11-7085] | did not impair | –
14 | COC[C@H]1OC(=O)c2coc3c2[C@@]1(C)C1=C(C3=O)[C@@H]2CCC(=O)[C@@]2(C)C[C@H]1OC(C)=O [wortmannin] | – | Pam3CSK-induced TNFα production in the presence of inhibitor (dTHP-1 cells [1]): 354 ± 135 pg/mL
15 | CN(C)CCCN1c2ccccc2Sc2ccc(Cl)cc21 [chlorpromazin, chlorpromazine] | not affected | effect of inhibitor on uptake of TAMRA-labelled DCATH-2 by dTHP-1 cells (dTHP-1 cells [2]): not affected
16 | C[S+]([O-])c1ccc(-c2nc(-c3ccncc3)c(-c3ccc(F)cc3)[nH]2)cc1 (stereo not shown) [SB203580] | completely blocked | –
17 | COc1cc(/C=C/C(=O)CC(=O)/C=C/c2ccc(O)c(OC)c2)ccc1O [curcumin] | not by garcinol or curcumin | –
18 | COc1cccc(-c2cc(=O)c3ccccc3o2)c1N [PD58059] | no effect | –
19 | CN(C)C(=N)N=C(N)N [metformin] | did not result in a significant reduction | Pam3CSK-induced TNFα production in the presence of inhibitor (dTHP-1 cells [1]): 387 ± 99 pg/mL
